Laboratory results published in article PMC10194981, “Chemosensory protein regulates the behavioural response of Frankliniella intonsa and Frankliniella occidentalis to tomato zonate spot virus–Infected pepper (Capsicum annuum)” (PLOS Pathogens, 2023).

Experiments:
[1] = target: recombinant wild-type FintCSP1 (Frankliniella intonsa, UniProt A0A891LVF4); test: Fluorescence (1-NPN) binding and competitive binding assay, wild-type FintCSP1; details: wild-type FintCSP1
Experimental: FintCSP1 and FoccCSP DNA were released from pEASY-T1/FintCSP1 and pEASY-T1/FoccCSP, respectively, by restriction digestion with BamHI and XhoI and cloned into the pET-30a vector (Invitrogen). The resulting construct was transformed into Transetta (DE3) Escherichia coli competent cells (Transgen). The production of recombinant FintCSP1 and FoccCSP was induced by addition of isopropyl-β-D-1-thiogalactopyranoside (IPTG, 0.2 mM) at 15°C and purified by Ni ion affinity chromatography (Sangon Biotech, Shanghai, China). The target protein was verified by 15% SDS-PAGE, and its concentration was determined with a BCA protein assay kit (Thermo Scientific, Rockford, IL, USA). The recombinant purified protein was stored at −20°C until use.
The binding affinity of FintCSP1 and FoccCSP to the fluorescent probe N-phenyl-1-naphthylamine (1-NPN) was tested using a Spectramax M2 fluorescence spectrometer (Molecular Devices, USA) as reported previously. […] The 1-NPN/FintCSP1 or 1-NPN/FoccCSP mixture was excited at 280 nm, and the emission spectra were recorded at 415 nm. The binding constants (Kd) of FintCSP1 or FoccCSP to 1-NPN were calculated by Scatchard analysis using Prism 5 software (GraphPad, La Jolla, CA, USA). Assuming a protein activity of 100% and that the volatile compound binds to the protein in a 1:1 ratio at saturation, the dissociation constants (Ki) of FintCSP1 or FoccCSP for each ligand were calculated according to the IC50 (the concentration when the ligand replaces 50% of the probe) value of the volatile compounds. The Ki values were calculated according to the following equation: Ki = [IC50]/(1 + [1-NPN]/K1-NPN), where [1-NPN] is the free concentration of 1-NPN, and K1-NPN is the Kd of the 1-NPN/FintCSP1 or 1-NPN/FoccCSP.

FintCSP1-Val132Ala = FintCSP1-Val132Ala (Frankliniella intonsa, UniProt A0A891LVF4, V132A); test: Fluorescence (1-NPN) binding and competitive binding assay, FintCSP1 mutant (negative control residue)
Sequence of FintCSP1-Val132Ala (A0A891LVF4 entry or part of it V132A): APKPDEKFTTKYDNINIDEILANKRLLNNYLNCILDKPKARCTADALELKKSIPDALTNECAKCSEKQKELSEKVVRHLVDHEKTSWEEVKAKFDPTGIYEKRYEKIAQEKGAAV
Experimental: The binding affinity of FintCSP1 and FoccCSP to the fluorescent probe N-phenyl-1-naphthylamine (1-NPN) was tested using a Spectramax M2 fluorescence spectrometer (Molecular Devices, USA) as reported previously. Volatile compounds and 1-NPN were first dissolved to a concentration of 1 mM in HPLC-grade methanol and dissolved to their indicated final concentration (2–20 μM) to titrate 2 μM protein solutions resuspended in 50 mM Tris-HCl (pH 7.4). The 1-NPN/FintCSP1 or 1-NPN/FoccCSP mixture was excited at 280 nm, and the emission spectra were recorded at 415 nm. The binding constants (Kd) of FintCSP1 or FoccCSP to 1-NPN were calculated by Scatchard analysis using Prism 5 software (GraphPad, La Jolla, CA, USA). Assuming a protein activity of 100% and that the volatile compound binds to the protein in a 1:1 ratio at saturation, the dissociation constants (Ki) of FintCSP1 or FoccCSP for each ligand were calculated according to the IC50 (the concentration when the ligand replaces 50% of the probe) value of the volatile compounds. The Ki values were calculated according to the following equation: Ki = [IC50]/(1 + [1-NPN]/K1-NPN), where [1-NPN] is the free concentration of 1-NPN, and K1-NPN is the Kd of the 1-NPN/FintCSP1 or 1-NPN/FoccCSP.
To verify the key amino acids of FintCSP1 and FoccCSP that bind to cis-3-hexenal, six amino acid residues of FintCSP1 were mutated (Lys26Ala, Phe27Ala, Thr28Ala, Glu67Ala, Ser84Ala, and the negative control residue Val132Ala) and nine amino acid residues of FoccCSP were mutated (Lys26Ala, Phe27Ala, Thr28Ala, Thr29Ala, Tyr31Ala, Asp64Ala, Glu67Ala, Gln87Ala, and the negative control residue Val132Ala) with the Fast Mutagenesis System Kit (Transgen Biotech, Beijing, China) using the pET-30a/FintCSP1 and pET-30a/FoccCSP plasmid DNA as template, respectively. […] After validation by sequencing, each recombinant variant protein was produced and purified as described above, and their binding affinity to cis-3-hexenal was measured as described above.

Sequence of recombinant wild-type FintCSP1 (A0A891LVF4 entry or part of it): as the sequence (A0A891LVF4 entry or part of it V132A) above, with A113V counted along it

CC/C=C\CC=O [cis-3-hexenal]
binding affinity to FintCSP1 (in words) ([1]; competitive fluorescence binding assay, classes of Ki): moderate binding affinity | IC50 ([1]; displacement of 1-NPN, protein and 1-NPN both 2 μM, 50 mM Tris-HCl pH 7.4, read-out: IC50): 36.2 ± 1 µM | Ki ([1]; displacement of 1-NPN, protein and 1-NPN both 2 μM, pH 7.4, calculated from IC50, read-out: Ki): 28.7 ± 0.79 µM | IC50 (FintCSP1-Val132Ala): 39.24 ± 0.36 µM | Ki (FintCSP1-Val132Ala): 32.18 ± 0.29 µM
